From patent US10941379B2, “Microbial system for biosynthesis of natural and engineered products coupled to in situ extraction in supercritical CO2” (Massachusetts Institute of Technology, priority 2016, dated 2021)

Legend:
B. megaterium DSM319 = experiment: Biolog GenIII sole carbon source growth; type: cell-based, Bacillus megaterium; details: no metals added; Table 10
Method: (§1) Plates were incubated at 37° C. on a plate shaker at 200 rpm and assayed for growth using NADH-dependent colorimetric changes measured by OD490 on a microplate reader (BioTek Synergy 2; BioTek; Winooski, Vt.).

B. megaterium QM B1551 = experiment: Biolog GenIII sole carbon source growth; type: cell-based, Bacillus megaterium; details: no metals added; Table 10
Method: as §1

B. megaterium SR7 [1] = experiment: Biolog GenIII sole carbon source growth; type: cell-based, Bacillus megaterium; details: for Growth on Biolog sole carbon source, SR7: no metals added, Table 10; for Growth in carbon source Biolog plate, +Metals: trace metals-amended plate; for Growth in carbon source Biolog plate, +Metals / Growth in carbon source Biolog plate, I / Growth in carbon source Biolog plate, II: Table 11; for Growth in carbon source Biolog plate, I: unamended plate trial I; for Growth in carbon source Biolog plate, II: unamended plate trial II
Method: as §1

B. megaterium SR7 [2] = details: LB, aerobic
Method: (§2) To help guide optimization of growth conditions for strain SR7, physiological tests were conducted under aerobic conditions. To determine tolerance for pH, salinity and bicarbonate, high throughput culturing was done in 96 well plates and scored for growth by OD600 using a microplate reader (BioTek Synergy 2; BioTek; Winooski, Vt.). 200 uL LB solutions/well were inoculated in triplicate with 10^4 spores/ml (based on SR7 spore stock filter counts) and incubated on a plate rocker at 37° C. with unamended positive and cell-free negative LB controls. Tests for pH tolerance (pH 2-10) were conducted in LB medium amended with HCl or NaOH. The effect of salinity and bicarbonate on growth was determined by adding NaCl (1-10%) and NaHCO3 (0.1-0.5M), respectively, to LB media. Optimal SR7 growth temperature was tested by inoculating 10^4 spores/ml in 5 ml of LB in triplicate at temperatures of 9-55° C. Cultures and cell-free negative controls were incubated without shaking, with subsamples taken for periodic OD600 measurements. SR7 antibiotic sensitivity was determined by supplementing 5 ml LB with ampicillin (5-50 μg/ml), chloramphenicol (3.5-35 μg/ml), kanamycin (5-50 μg/ml), spectinomycin (10-100 μg/ml), streptomycin (10-100 μg/ml), or tetracycline (1.5-15 μg/ml).

B. megaterium SR7 spores [3] = experiment: Delayed germination induction in PBS under 1 atm CO2 (bulk fluorescence, OD600); type: cell-based, Bacillus megaterium; details: 9.5 hours after delayed induction in PBS; for OD600 Fold Decrease: OD decrease indicative of germination
Method: Sub-sample bulk fluorescence (Syto9®) was measured by microplate reader (BioTek Synergy 2; 485/20 excitation, 528/20 emission) and OD600 was measured by microplate reader. OD should decrease in germinated cells (the index of refraction decreases due to hydration upon spore coat degradation) while bulk fluorescence should increase as the nucleic acid stain progressively penetrates and permeates the cell (Magge et al., 2009). To test for germination after a delayed inducer spike rather than at the moment of inoculation, B. megaterium SR7 spores loaded at OD600 0.01 were incubated overnight in 30 ml of PBS, passaged into PBS amended with L-alanine (25-250 mM) or L-leucine (10-25 mM) and then assayed for germination by bulk fluorescence and OD600 during incubation.

B. megaterium SR7 spores [4] = experiment: Spore germination and growth under scCO2 with germination inducers; type: cell-based, Bacillus megaterium; details: pooled incubations, 18-20 days; unamended reactors 36%
Method: SR7 growth outcomes were investigated under scCO2 headspace (90-100 atm; 37° C.) while shaking at 250 rpm. SR7 spores were inoculated at starting concentrations of ˜3×10^4 spores/ml (unless otherwise specified) in either 50 mM K2HPO4-buffered LB (P-LB) or M9+ media (Table 1). Experiments assaying the effect of germination induction included 100 mM L-alanine and 10 mM L-leucine media amendments and heat treatment upon reactor pressurization (70° C. for 10 minutes). Incubations were conducted in 316 stainless steel vessels and gradually pressurized to supercritical conditions using a CO2/He cylinder, as previously described. SR7 germination was verified by the identification of vegetative cell morphologies using fluorescence microscopy of Syto9-stained cultures. Growth was defined by an increase of at least 10-fold growth in cell counts relative to t0.
In order to ascertain whether L-alanine, L-leucine, and heat treatment induce germination under scCO2 headspace, three replicate experiments were conducted comparing growth for SR7 spores when loaded in media P-LB, P-LBL, P-LBAL, or P-LBA±heat treatment (Table 1; Table 2). Reactors were depressurized and scored for germination and growth by fluorescence microscopy, as previously described.
Cell densities of P-LB and L-PBA incubations from the three experiments (Table 3; Incubations A-C) were subjected to statistical analysis to establish the significance of 100 mM L-alanine on spore growth outcomes. A non-parametric Wilcoxon/Kruskal-Wallis Test was performed on the dataset (JMP® Pro v.12; SAS Cary, N.C.) where growth outcome (growth/no growth) and cell density fold change (relative to t0) were dependent variables and incubation time and inducer presence/absence (±100 mM L-alanine) were independent variables. […]

B. megaterium SR7 [5] = experiment: SR7 antibiotic sensitivity in LB (OD600 vs unamended control); type: cell-based, Bacillus megaterium
Method: as §2

[6] = assayed 0, 5, 10, 50, 80, 100 g/L over 36 h
[7] = assayed 0, 100, 300, 500 mM over 36 h

| SMILES | Growth on Biolog sole carbon source, DSM319 (B. megaterium DSM319) | Growth on Biolog sole carbon source, QM B1551 (B. megaterium QM B1551) | Growth on Biolog sole carbon source, SR7 (B. megaterium SR7 [1]) | Growth in carbon source Biolog plate, +Metals (B. megaterium SR7 [1]) | Growth in carbon source Biolog plate, I (B. megaterium SR7 [1]) | Growth in carbon source Biolog plate, II (B. megaterium SR7 [1]) | further results |
| --- | --- | --- | --- | --- | --- | --- | --- |
| OC[C@H]1O[C@H](O)[C@H](O)[C@@H](O)[C@@H]1O [α-D-Glucose] | +++ | + | + | +++ | + | + |  |
| [Cl-].[Na+] [NaCl] |  |  |  |  |  |  | Optimal for SR7 growth, [NaCl] (B. megaterium SR7 [2]; [6]): 0 to 10 g/L; Range of viable SR7 growth, [NaCl] (B. megaterium SR7 [2]; [6]): 0 to 100 g/L |
| CC(=O)N[C@H]1C(O)O[C@H](CO)[C@@H](O)[C@@H]1O (stereo partly drawn) [N-Acetyl-D-Glucosamine] | +++ | + | + |  | + | + |  |
| CC(C)C[C@H](N)C(=O)O [L-leucine] |  |  |  |  |  |  | Fluorescence Fold Increase (B. megaterium SR7 spores [3]; 10 mM inducer): 2.0 fold; OD600 Fold Decrease (B. megaterium SR7 spores [3]; 10 mM inducer): 1.2 fold; Fluorescence Fold Increase (B. megaterium SR7 spores [3]; 25 mM inducer): 2.0 fold; OD600 Fold Decrease (B. megaterium SR7 spores [3]; 25 mM inducer): 1.2 fold; Growth frequency of cultures under scCO2 (B. megaterium SR7 spores [4]): 7.7% |
| O=C(O)[C@@H](O)[C@@H](O)[C@H](O)[C@@H](O)C(=O)O [D-Saccharic Acid] | − | +++ | − | − | − | + |  |
| N[C@@H](CCC(=O)O)C(=O)O [L-Glutamic Acid] | +++ | +++ | + | +++ | + | + |  |
| O=C(O)C[C@H](O)C(=O)O [L-Malic Acid] | +++ | +++ | +++ | + |  | +++ |  |
| OC[C@@H](O)[C@@H](O)[C@H](O)[C@H](O)CO [D-Mannitol] | +++ | + | + | + | + | + |  |
| O=C(O)O [NaHCO3] |  |  |  |  |  |  | Optimal for SR7 growth, NaHCO3 (B. megaterium SR7 [2]; [7]): 0 to 100 mM; Range of viable SR7 growth, NaHCO3 (B. megaterium SR7 [2]; [7]): 0 to 300 mM |
| O=C(O)[C@H](O)[C@@H](O)[C@H](O)[C@H](O)CO [D-Gluconic Acid] | +++ | + | + | +++ | + | + |  |
| N[C@@H](Cc1c[nH]cn1)C(=O)O [L-Histidine] | +++ | + | + | + | + | + |  |
| OC[C@H]1O[C@@](CO)(O[C@H]2O[C@H](CO)[C@@H](O)[C@H](O)[C@H]2O)[C@@H](O)[C@@H]1O [Sucrose] | +++ | + | − | + | − | + |  |
| N[C@@H](CC(=O)O)C(=O)O [L-Aspartic Acid] | +++ | + | + | +++ | + | + |  |
| O=C(O)CC(Br)C(=O)O (stereo not shown) [Bromo-Succinic Acid] | +++ | + | + | + | + | + |  |
| CC(O)CC(=O)O (racemic) [β-Hydroxy-D,L-Butyric Acid] | + | +++ | + | + | + | + |  |
| C[C@H](O)C(=O)O [L-Lactic Acid] | +++ | +++ | + | + | + | + |  |
| CN[C@@H]1[C@H](O)[C@H](NC)[C@H]2O[C@@]3(O)C(=O)C[C@@H](C)O[C@H]3O[C@@H]2[C@H]1O [Spectinomycin] |  |  |  |  |  |  | % Control (B. megaterium SR7 [5]; (OD600 AB/OD600 Control)*100 in LB, average n = 2, 100 ug/mL, 24 hours, 37° C.): 47%; Sensitivity (B. megaterium SR7 [5]; LB, 100 ug/mL): S/R; SR7 sensitivity to antibiotics (B. megaterium SR7 [5]; result in words, summary of Table 9): intermediate sensitivity |
